In general, pKi refers to −log10 of the Ki, conventionally taken in molar units. In general, AUC refers to concentration integrated over time. For orientation: clearance means a measure of how efficiently the substance is removed, as volume per time. Broadly, the bioavailability is the share of a dose that reaches the circulation, judged against a reference dose that is usually intravenous. As usually defined, the half-life is the time in which the quantity being followed falls by half. As usually defined, the Cmax is the peak of the concentration-time curve. As usually defined, the IC90 is the point of the concentration-response curve where the effect stands at 90%.

pKi: −log10 of the molar value. Numbered stars: 1 amine (or outer) side, 2 acyl side, 3 side chain; on linkers, the order of the positions; unused ones are H or OH. Square brackets hold non-standard residues; d marks the D form. Peptide text beside a SMILES is read from it. * marks the point of attachment. Pro(3R,4S-CMe2) = CC1(C)[C@@H]2[C@@H](C(=O)O)NC[C@@H]21; Pro(4,4-S(CH2)3S) = O=C(O)[C@@H]1CC2(CN1)SCCCS2; Pro(4,4-SCH2CH2S) = O=C(O)[C@@H]1CC2(CN1)SCCS2; X4 = O=C(C(=O)[*:2])C(CCC(F)(F)F)N[*:1]; Pro(4,4-Me2) = CC1(C)CN[C@H](C(=O)O)C1; Pro(4R-Me) = C[C@H]1CN[C@H](C(=O)O)C1; Isobutyloxycarbonyl = CC(C)COC(=O)*; X1 = O=C(C(=O)[*:2])C(CC1CC1)N[*:1]; X3 = CCCCC(N[*:1])C(=O)C(=O)[*:2]; Hyp = O=C(O)[C@@H]1C[C@@H](O)CN1; X2 = CCCC(N[*:1])C(=O)C(=O)[*:2]; Chg = N[C@H](C(=O)O)C1CCCCC1; Phg = N[C@H](C(=O)O)c1ccccc1; Tle = CC(C)(C)[C@H](N)C(=O)O; Boc = CC(C)(C)OC(=O)*; tBu = CC(C)(C)*

16 compounds from ChEMBL document CHEMBL1147660, “Discovery of SCH446211 (SCH6): a new ketoamide inhibitor of the HCV NS3 serine protease and HCV subgenomic RNA replication” (J Med Chem, 2006) can be followed below.

For one data set, the target named is NS3 (Hepatitis C virus, UniProt A3EZJ3). In words: Binding affinity to HCV NS3 serine protease. Set-up: species or system Hepacivirus hominis.
Data set [1] in a line: Selectivity for HCV NS3 serine protease over HNE.
Data set [2] can be described thus: AUC in monkey at 1 mg/kg, sc. The format is ADME, organism-based, Macaca mulatta. Set-up: dose 1 mg/kg, route subcutaneous. Conditions: rhesus monkey, plasma.
A short description of data set [3]: Clearance in monkey. The format is ADME, organism-based, Macaca mulatta. Conditions: rhesus monkey, in vivo.
Data set [4] in a line: Clearance in rat. Conditions: in vivo. The format is ADME, organism-based.
A short description of data set [5]: Oral bioavailability in monkey at 1 mg/kg, sc. The format is ADME, organism-based, Macaca mulatta. The note with it: rhesus monkey, in vivo, subcutaneous.
Data set [6] is described as follows: Half life in monkey at 1 mg/kg, iv. Set-up: dose 1 mg/kg, route intravenous. The format is ADME, organism-based, Macaca mulatta. The note with it: rhesus monkey, in vivo.
A short description of data set [7]: AUC in monkey at 3 mg/kg, po. The class given is ADME, organism-based, Macaca mulatta. Set-up: dose 3 mg/kg, route oral. Conditions: rhesus monkey, plasma.
Data set [8] in a line: Cmax in monkey at 1 mg/kg, sc. The class given is ADME, organism-based, Macaca mulatta. Set-up: dose 1 mg/kg, route subcutaneous. The note with it: rhesus monkey, in vivo.
Data set [9] can be described thus: Cmax in rat at 10 mg/kg, sc. Conditions: in vivo. The class given is ADME, organism-based. Also on record: dose 10 mg/kg, route subcutaneous.
Data set [10] in a line: AUC in monkey at 1 mg/kg, iv. The format is ADME, organism-based, Macaca mulatta. Also on record: dose 1 mg/kg, route intravenous. Conditions: rhesus monkey, plasma.
Data set [11] is described as follows: AUC in rat at 10 mg/kg, po. The class given is ADME, organism-based. Set-up: dose 10 mg/kg, route oral. Conditions: plasma.
Data set [12] is described as follows: Cmax in rat at 10 mg/kg, po. The format is ADME, organism-based. Also on record: dose 10 mg/kg, route oral. The note with it: in vivo.
Data set [13] can be described thus: AUC in rat at 10 mg/kg, sc. The class given is ADME, organism-based. Also on record: dose 10 mg/kg, route subcutaneous. The note with it: plasma.
In another data set the test system is Hepatitis C virus. The experiment in a line: Inhibition of HCV replicon. The format is functional, Hepacivirus hominis. For orientation: In antiviral work, replicon cells carry a viral genome segment that copies itself.
The nature of data set [14]: AUC in rat at 5 mg/kg, iv. The class given is ADME, organism-based. Set-up: dose 5 mg/kg, route intravenous. The note with it: plasma.
A short description of data set [15]: Oral bioavailability in rat at 10 mg/kg, sc. The class given is ADME, organism-based. The note with it: in vivo, subcutaneous.
A short description of data set [16]: Cmax in monkey at 3 mg/kg, po. Conditions: rhesus monkey, in vivo. The class given is ADME, organism-based, Macaca mulatta. Also on record: dose 3 mg/kg, route oral.
Data set [17] in a line: Oral bioavailability in monkey at 3 mg/kg, po. The class given is ADME, organism-based, Macaca mulatta. Conditions: rhesus monkey, in vivo.
Data set [18] can be described thus: Half life in rat at 5 mg/kg, iv. The format is ADME, organism-based. Also on record: dose 5 mg/kg, route intravenous. The note with it: in vivo.
A short description of data set [19]: Oral bioavailability in rat at 10 mg/kg, po. The format is ADME, organism-based. Conditions: in vivo.

Chain of NS3 (A3EZJ3 whole entry): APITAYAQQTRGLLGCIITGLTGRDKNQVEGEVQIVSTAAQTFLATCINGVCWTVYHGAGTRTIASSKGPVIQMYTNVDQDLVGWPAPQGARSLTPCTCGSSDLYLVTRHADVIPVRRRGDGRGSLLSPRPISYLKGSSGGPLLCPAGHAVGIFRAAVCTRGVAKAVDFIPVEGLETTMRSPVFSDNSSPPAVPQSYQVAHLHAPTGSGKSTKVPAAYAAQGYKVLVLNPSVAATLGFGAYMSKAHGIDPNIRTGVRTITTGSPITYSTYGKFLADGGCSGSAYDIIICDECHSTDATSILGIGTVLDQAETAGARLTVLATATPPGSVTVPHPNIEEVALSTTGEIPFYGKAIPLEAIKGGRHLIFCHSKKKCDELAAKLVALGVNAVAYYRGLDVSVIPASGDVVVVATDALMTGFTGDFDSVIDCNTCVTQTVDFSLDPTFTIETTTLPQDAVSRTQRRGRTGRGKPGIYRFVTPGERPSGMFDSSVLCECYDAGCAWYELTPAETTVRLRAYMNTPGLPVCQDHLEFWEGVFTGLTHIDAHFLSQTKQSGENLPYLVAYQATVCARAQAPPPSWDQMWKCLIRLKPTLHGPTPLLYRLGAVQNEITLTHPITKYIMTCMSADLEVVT

As to `CCCC(NC(=O)[C@@H]1C[C@@H](C)CN1C(=O)[C@@H](NC(=O)OCC(C)C)C(C)(C)C)C(=O)C(=O)NCC(=O)N[C@H](C(=O)N(C)C)c1ccccc1` (stereo partly drawn) (Isobutyloxycarbonyl-[Tle][Pro(4R-Me)][X2]G[Phg]-NMe2), at NS3, the pKi is 6.85.
As for `CN(C)C(=O)[C@@H](NC(=O)CNC(=O)C(=O)C(CC1CC1)NC(=O)[C@@H]1[C@@H]2[C@H](CN1C(=O)[C@@H](NC(=O)OC(C)(C)C)C(C)(C)C)C2(C)C)c1ccccc1` (stereo partly drawn) (Boc-[Tle][Pro(3R,4S-CMe2)][X1]G[Phg]-NMe2), in [1], the Selectivity ratio came out at 1000. Moreover, the AUC came out at 5.6 µM·h in [2]; 0.03 µM·h in data set [7]; 3.4 µM·h in data set [10]; 0.35 µM·h in [11]; 19.5 µM·h in data set [13]; 4.7 µM·h in [14]. Besides, the clearance is 6.9 mL/min/kg in [3] and 24 mL/min/kg in [4]. Further, the bioavailability was 100% in data set [5], 100% in data set [15], 1% in data set [17] and 4% in data set [19]. The half-life in data set [6] was 5.3 h; in data set [18] it was 5.2 h. Further, the peak concentration (Cmax) turned out to be 1600 nM in data set [8], 4370 nM in [9], 120 nM in [12] and 30 nM in data set [16]. Further, at NS3, the negative logarithm of the Ki (pKi) was 8.42. The same compound showed an IC90 in the data set on Hepatitis C virus of 0.1 µM.
`CCCC(NC(=O)[C@@H]1CC(C)(C)CN1C(=O)[C@@H](NC(=O)OCC(C)C)C(C)(C)C)C(=O)C(=O)NCC(=O)N[C@H](C(=O)N(C)C)c1ccccc1` (some centres undefined) (Isobutyloxycarbonyl-[Tle][Pro(4,4-Me2)][X2]G[Phg]-NMe2): on NS3, the pKi is 7.44.
Regarding `CCCC(NC(=O)[C@@H]1C[C@@H](OC(C)(C)C)CN1C(=O)[C@@H](NC(=O)OCC(C)C)C(C)(C)C)C(=O)C(=O)NCC(=O)N[C@H](C(=O)N(C)C)c1ccccc1` (some centres undefined) (Isobutyloxycarbonyl-[Tle][Hyp](tBu)[X2]G[Phg]-NMe2), the pKi on NS3 is 7.72. In the data set with Hepatitis C virus, this compound gave an IC90 of 2 µM.
In turn, `CCCC(NC(=O)[C@@H]1CC2(CCCC2)CN1C(=O)[C@@H](NC(=O)OCC(C)C)C1CCCCC1)C(=O)C(=O)NCC(=O)N[C@H](C(=O)N(C)C)c1ccccc1` (some centres undefined) had a pKi at NS3 of 7.59.
With `CCCC(NC(=O)[C@@H]1C[C@@H](SC(C)(C)C)CN1C(=O)[C@@H](NC(=O)OCC(C)C)C(C)(C)C)C(=O)C(=O)NCC(=O)N[C@H](C(=O)N(C)C)c1ccccc1` (some centres undefined), the pKi on NS3 was 6.92.
`CCCC(NC(=O)[C@@H]1[C@H]2CC(C)(C)C[C@H]2CN1C(=O)[C@@H](NC(=O)OCC(C)C)C(C)(C)C)C(=O)C(=O)NCC(=O)N[C@H](C(=O)N(C)C)c1ccccc1` (some centres undefined) had a pKi at NS3 of 7.82. For the same compound, the IC90 in the data set on Hepatitis C virus was found to be 0.9 µM.
For the compound `CCCC(NC(=O)[C@@H]1[C@@H]2[C@H](CN1C(=O)[C@@H](NC(=O)OCC(C)C)C(C)(C)C)C2(C)C)C(=O)C(=O)NCC(=O)N[C@H](C(=O)N(C)C)c1ccccc1` (stereo partly drawn) (Isobutyloxycarbonyl-[Tle][Pro(3R,4S-CMe2)][X2]G[Phg]-NMe2), the Selectivity ratio in data set [1] was 81. The compound further showed a pKi on NS3 of 7.80. The IC90 in the data set with Hepatitis C virus came to 0.35 µM.
The corresponding values for `CCCCC(NC(=O)[C@@H]1[C@@H]2[C@H](CN1C(=O)[C@@H](NC(=O)OC(C)(C)C)C(C)(C)C)C2(C)C)C(=O)C(=O)NCC(=O)N[C@H](C(=O)N(C)C)c1ccccc1` (stereo partly drawn) (Boc-[Tle][Pro(3R,4S-CMe2)][X3]G[Phg]-NMe2) are 964, 8.00 and 0.4 µM.
Regarding `CCCC(NC(=O)[C@@H]1CC2(CN1C(=O)[C@@H](NC(=O)OCC(C)C)C1CCCCC1)SCCS2)C(=O)C(=O)NCC(=O)N[C@H](C(=O)N(C)C)c1ccccc1` (some centres undefined) (Isobutyloxycarbonyl-[Chg][Pro(4,4-SCH2CH2S)][X2]G[Phg]-NMe2), the pKi at NS3 is 7.59.
In turn, `CCCC(NC(=O)[C@@H]1CCCN1C(=O)[C@@H](NC(=O)OCC(C)C)C1CCCCC1)C(=O)C(=O)NCC(=O)N[C@H](C(=O)N(C)C)c1ccccc1` (some centres undefined) (Isobutyloxycarbonyl-[Chg]P[X2]G[Phg]-NMe2) gave a pKi on NS3 of 5.00.
Regarding `CN(C)C(=O)[C@@H](NC(=O)CNC(=O)C(=O)C(CCC(F)(F)F)NC(=O)[C@@H]1[C@@H]2[C@H](CN1C(=O)[C@@H](NC(=O)OC(C)(C)C)C(C)(C)C)C2(C)C)c1ccccc1` (stereo partly drawn) (Boc-[Tle][Pro(3R,4S-CMe2)][X4]G[Phg]-NMe2), the Selectivity ratio in data set [1] came to 4600. At NS3, this compound had a negative-log Ki (pKi) of 8.70. For the same compound, the IC90 in the data set on Hepatitis C virus turned out to be 0.4 µM.
With `CCCC(NC(=O)[C@@H]1CC2(CN1C(=O)[C@@H](NC(=O)OCC(C)C)C1CCCCC1)SCCCS2)C(=O)C(=O)NCC(=O)N[C@H](C(=O)N(C)C)c1ccccc1` (some centres undefined) (Isobutyloxycarbonyl-[Chg][Pro(4,4-S(CH2)3S)][X2]G[Phg]-NMe2), at NS3, the pKi is 7.55.
For `CCCC(NC(=O)[C@@H]1[C@@H]2[C@H](CN1C(=O)[C@@H](NC(=O)OCC(C)C)C1CCCCC1)C2(C)C)C(=O)C(=O)NCC(=O)N[C@H](C(=O)N(C)C)c1ccccc1` (stereo partly drawn) (Isobutyloxycarbonyl-[Chg][Pro(3R,4S-CMe2)][X2]G[Phg]-NMe2), the Selectivity ratio in data set [1] was determined as 4. Moreover, the negative-log Ki (pKi) at NS3 is 8.00. Also, in the data set with Hepatitis C virus, it took 0.2 µM to reach the 90% level (IC90).
The corresponding values for `CCCC(NC(=O)[C@@H]1[C@@H]2[C@H](CN1C(=O)[C@@H](NC(=O)OC(C)(C)C)C(C)(C)C)C2(C)C)C(=O)C(=O)NCC(=O)N[C@H](C(=O)N(C)C)c1ccccc1` (stereo partly drawn) (Boc-[Tle][Pro(3R,4S-CMe2)][X2]G[Phg]-NMe2) are 147, 7.85 and 0.25 µM.
`CCCC(NC(=O)[C@@H]1[C@H]2CC(C)(C)O[C@H]2CN1C(=O)[C@@H](NC(=O)OCC(C)C)C(C)(C)C)C(=O)C(=O)NCC(=O)N[C@H](C(=O)N(C)C)c1ccccc1` (some centres undefined) gave a negative-log Ki (pKi) at NS3 of 8.00. Further, it took 1.8 µM to reach the 90% level in the data set on Hepatitis C virus (IC90).
